Where two headings read alike, the source gives them in different places.
Key:
Assay type in all cases: cell-based
[1] = system: Xanthomonas campestris B-610; assay: Agar-well diffusion, bactericidal activity; conditions: Xanthomonas campestris
Description: Bacteria M. luteus, P. carotovorum subsp. carotovorum, P. atrosepticum, and P. fluorescens were grown in a meat–peptone medium (BP), and X. campestris was grown in the medium with glucose, yeast extract, and calcium carbonate (GYCa). Solid media contained Bacto agar (18 g/L); pH was adjusted to 7.2–7.4. […] For inoculum preparation, both fungal strains were initially grown on the agar GPY in Petri dishes and then transferred into the seed medium by punching out 5 mm of the agar plate culture with a self-designed cutter.
(§1) The antibacterial and antifungal activities of the compounds were explored using the agar-well diffusion method and the technique of mycelial radial growth inhibition. The method of diffusion in agar (measuring the diameter of growth inhibition zones) was used to determine the bactericidal activity. The 6-mm wells were made in agar medium (GYCa for Xanthomonas campestris or BP for other bacteria). Bacterial suspensions were distributed over the agar surface, and the tested compound’s solution (150 μL) was added to each well. The width of growth inhibition zones around the wells was determined after incubation for 36–40 h.

[2] = system: Fusarium oxysporum IBPPM 543; assay: Mycelial radial growth inhibition; conditions: Fusarium oxysporum; for inhibition of growth at 1 µM: 1 nmol/mL; for inhibition of growth at 1 µM / inhibition of growth at 5 µM / inhibition of growth at 30 µM / inhibition of growth at 40 µM: read-out: Inhibition value, I (%); for inhibition of growth at 5 µM: 5 nmol/mL; for inhibition of growth at 30 µM: 30 nmol/mL; for inhibition of growth at 40 µM: 40 nmol/mL
From the text: (§2) Plant pathogenic bacterial strains Micrococcus luteus B-109, Pectobacterium atrosepticum 1043, Pectobacterium carotovorum subsp. carotovorum MI, Pseudomonas fluorescens EL-2.1, and Xanthomonas campestris B-610 and the fungal strain Fusarium oxysporum IBPPM 543 were from the Collection of Rhizosphere Microorganisms, IBPPM RAS (WFCC no. 975, WDCM no. 1021) (CM IBPPM, http://collection.ibppm.ru). The pathogenic fungus Phytophthora cactorum VKM F-985, provided by the All-Russian Collection of Microorganisms (VKM) and deposited at the A.E. Favorsky Irkutsk Institute of Chemistry, SB RAS, was also used as a test organism. Bacteria M. luteus, P. carotovorum subsp. carotovorum, P. atrosepticum, and P. fluorescens were grown in a meat–peptone medium (BP), and X. campestris was grown in the medium with glucose, yeast extract, and calcium carbonate (GYCa). Solid media contained Bacto agar (18 g/L); pH was adjusted to 7.2–7.4. All bacterial cultures were grown at 28 °C. The mycelial cultures of F. oxysporum and P. cactorum were grown on a glucose–peptone–yeast (GPY) nutrient medium at 27 °C. For inoculum preparation, both fungal strains were initially grown on the agar GPY in Petri dishes and then transferred into the seed medium by punching out 5 mm of the agar plate culture with a self-designed cutter.
(§3) For the fungicidal activity analysis, radial growth (colony diameters) of the fungi on a solid medium in the absence and in the presence of the compounds 5a–e and 7a–c solutions at various concentrations were compared. The method consisted of the following: A sterile GPY agar medium (20.0 mL), which was melted and then allowed to cool to approximately 60 °C, was mixed with the precisely measured volumes of the solutions under question and poured into a sterile Petri dish (90 mm i.d.). After the solidification of GPY agar, the media were inoculated by the fungus using 10-day-old cultures of F. oxysporum or P. cactorum. The inoculation was conducted by transferring a 5-mm (i.d.) GPY-agar block covered with mycelium to the center of the Petri dish, followed by incubation in a thermostat at 27 °C. The fungicidal effect was scored by the size of the mycelium colony on a Petri dish compared to the control without fungicidal admixtures to GPY agar. Each treatment was performed in at least four replicates in two independent experiments. The observation period ended when the control Petri dish was filled with mycelium (usually after 12 days). […] The solutions of the compounds were prepared with a concentration of 2 mmol/L (stock solution). For comparison, test compounds were also commonly applied as disinfecting agents, and antibiotics were used as a positive control.

[3] = system: Phytophthora cactorum VKM F-985; assay: Mycelial radial growth inhibition; conditions: Phytophthora cactorum; for inhibition of growth at 1 µM: 1 nmol/mL; for inhibition of growth at 1 µM / inhibition of growth at 3 µM / inhibition of growth at 7 µM / inhibition of growth at 20 µM / inhibition of growth / inhibition of growth at 40 µM: read-out: Inhibition value, I (%); for inhibition of growth at 3 µM: 3 nmol/mL; for inhibition of growth at 7 µM: 7 nmol/mL; for inhibition of growth at 20 µM: 20 nmol/mL; for inhibition of growth: 27 nmol/mL; for inhibition of growth at 40 µM: 40 nmol/mL
From the text: as §2, §3

[4] = system: Pectobacterium atrosepticum 1043; assay: Agar-well diffusion, bactericidal activity; conditions: Pectobacterium atrosepticum, 1043, 2 mM/L
From the text: as §2, §1

[5] = system: Pectobacterium carotovorum subsp. carotovorum MI; assay: Agar-well diffusion, bactericidal activity; conditions: Pectobacterium carotovorum, 2 mM/L
From the text: as §2, §1

[6] = system: Pseudomonas fluorescens EL-2.1; assay: Agar-well diffusion, bactericidal activity; conditions: Pseudomonas fluorescens, EL2.1, 2 mM/L
From the text: as §2, §1

[7] = system: Micrococcus luteus B-109; assay: Agar-well diffusion, bactericidal activity; conditions: Micrococcus luteus
From the text: as §2, §1

[8] = system: five representative phytopathogens; assay: Agar-well diffusion, bactericidal activity over the panel of phytopathogens; conditions: 36 h, 2 mM solutions; dependent on the test system used; read-out: inhibition zone width (mm), range over the test systems
From the text: as §2, §1

[9] = IBPPM543, 72 h, age of the fungus 3 days
[10] = IBPPM543, 120 h, age of the fungus 5 days
[11] = IBPPM543, 168 h, age of the fungus 7 days
[12] = IBPPM543, 216 h, age of the fungus 9 days
[13] = 120 h, age of the fungus 5 days
[14] = 168 h, age of the fungus 7 days
[15] = 216 h, age of the fungus 9 days
[16] = Table S3, read-out: Inhibition zone width (mm), not less

Cc1ccc[n+](CC(=O)N/N=C2\C(=O)N(Cc3cccc(C(F)(F)F)c3)c3ccccc32)c1C [Compound 7c]
zone of inhibition at 2000 µM ([1]; B610, 2 mM/L, average of 3 experiments, read-out: width of the inhibition zone (mm), X. campestris): 9 mm
zone of inhibition at 2000 µM ([1]; B610, Table S3, 2 mM/L, read-out: Inhibition zone width (mm), not less): ≥ 9 mm
inhibition of growth at 1 µM [2, 9]: 22%
inhibition of growth at 5 µM [2, 9]: 36%
inhibition of growth at 30 µM [2, 9]: 45%
inhibition of growth at 40 µM [2, 9]: 57%
EC50 ([2]; IBPPM543, 120 h, day 5, read-out: EC50, µg/mL at Day 5, F. oxysporum): 13.9 µg/mL
inhibition of growth at 1 µM [2, 10]: 21%
inhibition of growth at 5 µM [2, 10]: 35%
inhibition of growth at 30 µM [2, 10]: 41%
inhibition of growth at 40 µM [2, 10]: 63%
inhibition of growth at 1 µM [2, 11]: 15%
inhibition of growth at 5 µM [2, 11]: 27%
inhibition of growth at 30 µM [2, 11]: 44%
inhibition of growth at 40 µM [2, 11]: 66%
inhibition of growth at 1 µM [2, 12]: 10%
inhibition of growth at 5 µM [2, 12]: 22%
inhibition of growth at 30 µM [2, 12]: 36%
inhibition of growth at 40 µM [2, 12]: 64%
inhibition of growth at 1 µM ([3]; 72 h, age of the fungus 3 days): 10%
inhibition of growth at 3 µM ([3]; 72 h, age of the fungus 3 days): 20%
inhibition of growth at 7 µM ([3]; 72 h, age of the fungus 3 days): 26%
inhibition of growth at 20 µM ([3]; 72 h, age of the fungus 3 days): 32%
inhibition of growth ([3]; 72 h, age of the fungus 3 days): 48%
inhibition of growth at 40 µM ([3]; 72 h, age of the fungus 3 days): 55%
EC50 ([3]; 120 h, day 5, read-out: EC50, µg/mL at Day 5, P. cactorum): 20 µg/mL
inhibition of growth at 1 µM [3, 13]: 11%
inhibition of growth at 3 µM [3, 13]: 18%
inhibition of growth at 7 µM [3, 13]: 22%
inhibition of growth at 20 µM [3, 13]: 27%
inhibition of growth [3, 13]: 36%
inhibition of growth at 40 µM [3, 13]: 56%
inhibition of growth at 1 µM [3, 14]: 12%
inhibition of growth at 3 µM [3, 14]: 17%
inhibition of growth at 7 µM [3, 14]: 22%
inhibition of growth at 20 µM [3, 14]: 25%
inhibition of growth [3, 14]: 33%
inhibition of growth at 40 µM [3, 14]: 44%
inhibition of growth at 1 µM [3, 15]: 11%
inhibition of growth at 3 µM [3, 15]: 16%
inhibition of growth at 20 µM [3, 15]: 9%
inhibition of growth [3, 15]: 28%
inhibition of growth at 40 µM [3, 15]: 41%
zone of inhibition at 2000 µM ([4]; average of 3 experiments, read-out: width of the inhibition zone (mm), P. atrosepticum): 6 mm
zone of inhibition at 2000 µM [4, 16]: ≥ 6 mm
zone of inhibition at 2000 µM ([5]; average of 3 experiments, read-out: width of the inhibition zone (mm), P. carotovorum subsp. carotovorum): 7 mm
zone of inhibition at 2000 µM [5, 16]: ≥ 7 mm
zone of inhibition at 2000 µM ([6]; average of 3 experiments, read-out: width of the inhibition zone (mm), Ps. fluorescens): 7 mm
zone of inhibition at 2000 µM [6, 16]: ≥ 7 mm
zone of inhibition at 2000 µM ([7]; B109, 2 mM/L, average of 3 experiments, read-out: width of the inhibition zone (mm), M. luteus): 7 mm
zone of inhibition at 2000 µM ([7]; B109, Table S3, 2 mM/L, read-out: Inhibition zone width (mm), not less): ≥ 7 mm
zone of inhibition at 2000 µM [8]: 6 to 9 mm

From PMC10607100, “Anticancer and Antiphytopathogenic Activity of Fluorinated Isatins and Their Water-Soluble Hydrazone Derivatives” (International Journal of Molecular Sciences, 2023)
